From patent US20190316081A1, “MEDIA AND METHODS FOR EXPANSION OF PLURIPOTENT STEM CELLS” (priority 2018, published 2019)

What was measured:
Type in all cases: cell-based, human
5i-hPSC = assay: Medium component screen and PD dose response on OCT4/SOX2 pluripotent phenotype, feeder-free adherent and suspension
Experimental: For intracellular staining, dissociated cells were fixed with 4% paraformadehyde (Electron Microscopy Sciences) for 10 minutes and permeabilized with 0.1% Triton™ X-100 (Sigma-Aldrich). Cells were then stained with the primary antibody (OCT4, BD Biosciences; SOX2, R&D; FOXA2, Abnova; cTNT, Thermo Fisher Scientific; TUBB3, Cell Signaling; PDX1, R&D; NKX6.1, DSHB) for 25 minutes followed by the secondary antibody for 25 minutes at 4° C. Stained cells were analyzed on a FACSCanto™ II (BD) or FACS Fortessa™ (BD) flow cytometer.
Statistical analysis was performed using the JMP software (SAS). Parametric tests were used for qpcr, doubling time, and maximum density experiments, with the Student's T-test used for 2 treatment experiments and Tukey's HSD test used for experiments with 3 or more treatments. A non-parametric test (Kruskal-Wallis) was used for colony formation experiments since this assay was developed specifically for this study. […] The linear regression model was developed in Excel (Microsoft®).
To test this hypothesis, a 96 well plate platform was designed to screen the effects of medium components on 5i-hPSC pluripotency in suspension cultures and in feeder-free adherent cultures (FIG. 8A). To examine the effects of adherent culture on pluripotency, a Geltrex™ coating was used to obtain an adherent culture condition in the absence of a feeder layer. […]

PSC (HES2) [1] = assay: Orbital shaker suspension culture of PSC aggregates with dextran sulfate; conditions: for aggregate control properties in PSC: data not shown
Experimental: In brief, HES2 were cultured on Geltrex™ LDEV-Free Reduced Growth Factor Basement Membrane Matrix (Thermo Fisher Scientific, 1:50 dilution in DMEM) coated plates in Nutristem® hESC XF Culture Medium (Biological Industries, “NS”) or E8 Medium (Thermo Fisher Scientific), supplemented with 1× Penicillin-Streptomycin (Thermo Fisher Scientific). Plates were coated with Geltrex™ for 30 minutes at 37° C. Cells were passaged 1:24 every 6 days by dissociation with TrypLE™ Express (Thermo Fisher Scientific) at 37° C. for 4-5 minutes. All cell line stocks were confirmed negative for mycoplasma contamination. Conversion to a “naïve” hPSC state was performed as described previously^35. Dextran sulfate compounds (DS, Sigma) were prepared by dilution in deionized water at a stock concentration of 100 mg/mL followed by filter sterilization.
(§1) Six well culture plates were pre-coated with 5% Pluronic F-68® (Thermo Fisher Scientific) for 30 minutes at 37° C. or overnight at 4° C. Dissociation of PSC to single cells was carried out by TrypLE™ Express (Thermo Fisher Scientific) treatment for 5 minutes at room temperature. Single cells were seeded into the Pluronic F-68® coated 6-well plates that were then placed on an orbital shaker with 10 μM Y-27632 (Reagents Direct) in normoxic (21% 02) conditions. Cells were seeded at densities of 2×10^5 cells/mL unless otherwise noted. Medium was exchanged by angling the plate at a 45° angle and allowing aggregates to settle onto the bottom edge. Two days after seeding, half of the growth medium was removed and replaced each day. Cells were harvested at the end of culture by dissociation with a 5 minute TrypLE™ treatment at 37° C. and cell counts were performed by Trypan Blue exclusion (Thermo Fisher Scientific). Bioreactor experiments were conducted following manufacturer instructions for operating the Ambr™-24 bioreactor system (Sartorius). Cell dissociation and medium exchange were performed as described above. Bioreactors were operated at 450 rpm and seeded with 4×10^5 cells/mL unless otherwise noted. Aggregates were analyzed using the Mastersizer™ 3000 particle analyzer (Malvern) according to manufacturer's instructions. Unless otherwise noted, the 560 μm aperture was used for analysis. Aggregates were dissociated and seeded into adherent conditions after 3 passages in suspension with DS. Directed differentiation into all three germ layers was performed as described previously for endoderm^40, mesoderm^41, and ectoderm^42 lineages. G-Band karyotyping was performed by WiCell.
Statistical analysis was performed in Excel software (Microsoft®). […] Coefficient of variation was calculated by estimating the volume of each aggregate from its diameter, calculating the standard deviation of each treatment, and normalizing to the mean. […]

HES2 and H9 cell lines = assay: 4i suspension culture supplemented with dextran sulfate; conditions: dextran sulfate at seeding
Experimental: HES2 and H9 hPSC were cultured in adherent conditions in 5i medium for >5 passages. Cells were dissociated with TrypLE™ as described previously and seeded as single cells into 4i medium in the presence of ROCK inhibitor into orbital shaker suspension culture plates (pre-treated with 5% Pluronic® F-68) in the presence of dextran sulfate at seeding. Half of the medium volume was exchanged every day starting on the second day by tilting the plate at a 45 degree angle and allowing cells to settle before removing half of the medium and replenishing it with fresh 4i medium without dextran sulfate.

H9 hPSC = assay: Aggregation control by DS in conventional and naive conditions; conditions: conventional and naive pluripotent states
PSC (HES2) [2] = assay: Stirred tank bioreactor suspension culture of PSC with dextran sulfate; conditions: stirred tank bioreactors seeded with DS, 3 passages
Experimental: as §1, with “Bioreactors were operated at 450 rpm and seeded with 4×10^5 cells/mL unless otherwise noted.” left out, “Unless otherwise noted, the 560 μm aperture was used for analysis. Aggregates were dissociated and seeded into adherent conditions after 3 passages in suspension with DS. Directed differentiation into all three germ layers was performed as described previously for endoderm^40, mesoderm^41, and ectoderm^42 lineages. G-Band karyotyping was performed by WiCell.” left out
Apoptosis analysis was conducted using Annexin V staining. […] Cells were analyzed on a FACS Canto™ II (BD) or FACS Fortessa™ (BD) flow cytometer. […]

PSC = assay: Karyotype and germ layer differentiation of DS treated PSC
Experimental: Six well culture plates were pre-coated with 5% Pluronic F-68® (Thermo Fisher Scientific) for 30 minutes at 37° C. or overnight at 4° C. Dissociation of PSC to single cells was carried out by TrypLE™ Express (Thermo Fisher Scientific) treatment for 5 minutes at room temperature. […] Cells were seeded at densities of 2×10^5 cells/mL unless otherwise noted. Medium was exchanged by angling the plate at a 45° angle and allowing aggregates to settle onto the bottom edge. Two days after seeding, half of the growth medium was removed and replaced each day. Cells were harvested at the end of culture by dissociation with a 5 minute TrypLE™ treatment at 37° C. and cell counts were performed by Trypan Blue exclusion (Thermo Fisher Scientific). […] Aggregates were dissociated and seeded into adherent conditions after 3 passages in suspension with DS. Directed differentiation into all three germ layers was performed as described previously for endoderm^40, mesoderm^41, and ectoderm^42 lineages. G-Band karyotyping was performed by WiCell.

## O=C(NOC[C@H](O)CO)c1ccc(F)c(F)c1Nc1ccc(I)cc1F [PD, N-[(2R)-2,3-dihydroxypropoxy]-3,4-difluoro-2-[(2-fluoro-4-iodophenyl)amino]-benzamide]
5i-hPSC; feeder-free adherent and suspension
  correlation of PD level to pluripotent phenotype: negatively correlated
5i-hPSC; model with growth format and interaction, 56 observations
  linear regression coefficient of PD level on OCT4/SOX2 expression: −27.0584

## pentosan polysulfate
PSC (HES2) [1]
  aggregate control properties in PSC: displayed aggregate control properties

## heparin
PSC (HES2) [1]
  aggregate control properties in PSC: displayed aggregate control properties

## dextran sulfate [DS]
HES2 and H9 cell lines
  mean aggregate size and variance relative to untreated conditions: both observed to decrease
H9 hPSC
  control of aggregation: able to control H9 hPSC aggregation in both pluripotent states
PSC (HES2) [1]; orbital shaker, 4 days
  homogeneity of aggregate sizes: reduced standard deviations and lower coefficients of variation of aggregate volume
PSC (HES2) [1]; orbital shaker, DS of 4, 15 and 40 kDa at varied concentration
  aggregate diameter: significantly reduced diameters in a dose-dependent fashion
PSC (HES2) [2]
  expression of pluripotency markers Oct4 and Sox2: > 85%
PSC; 9 passages (5 adherent, 4 suspension)
  karyotype: retained a normal karyotype
PSC; after 9 passages with DS
  differentiation to three germ layers: maintained the ability to differentiate to cell types from all three germ layers
